Measured values published in US11512335B2, “Vertebrate cells and methods for recombinantly expressing a polypeptide of interest” (Novartis AG, priority 2014, dated 2022).
pKi: −log10 of the molar value. Several values for one entry are separate records, joined by “and”; a condition that tells them apart may be missing. Equal values may be shown once.

Legend:
C1r (C1ra) mRNA = experiment: siRNA silencing in CHO-K1 derived cells, mRNA expression by real-time RT-PCR; format: cell-based, Chinese hamster; conditions: for residual protease gene-expression: siRNA negative control cells = 100%
Procedure: (§1) First, the proteolytic cleavage site(s) of different recombinant proteins that are prone to clipping were analyzed using different techniques including CE-SDS analysis, mass spectrometry and in silico analysis (data not shown). […] The siRNAs were designed against the following target mRNAs expressed in CHO cells: 1. Matriptase (MT-SP1; also referred to herein as St14), 2. C1r (complement component activated C1r; also referred to as Ctra), 3. C1s (complement component C1sB; also referred to as Gm5077), 4. Plat (t-plasminogen activator) and 5. Prss35 (protease, serine, 35). These target genes encode trypsin-like proteases that are either secreted or transmembrane proteins and thus could be involved in clipping of recombinantly expressed proteins that are secreted into the cell culture medium. It was confirmed in advance that these proteins are expressed by the CHO cells. Table 2 provides an overview over the respective target genes:
(§2) RNAi transfection of CHO-K1 derived cells was performed using Lipofectamine® RNAiMAX Reagent (Life Technology, cat. 13778), following the ‘Reverse Transfection Protocol’ of the manual MAN0001182, scaled up for 6-well plates. For each mRNA target, the two most efficient concentrations of RNAi duplex molecules were used among 100, 125 and 150 pmol: 125 and 150 pmol for MT-SP1 (St14), 125 and 150 pmol for C1r (C1ra), 100 and 125 pmol for Cis (Gm5077), 125 and 150 pmol for Plat and 100 and 125 pmol for Prss35. RNAi duplex molecules of the two selected concentrations were diluted in 1 ml Opti-MEM® (Gibco, cat. 31985-062). As RNAi negative control (siRNA negative control), the Silencer@ Negative Control No. 1 siRNA (AM4611) was used (at 125 pmol). 5 μl Lipofectamine® RNAiMAX Reagent was added in each well. 2 ml of a cell suspension with a concentration of 0.5×10^6 cells/ml were added and plates were incubated at 37° C. and 10% CO2. Three days after transfection, cell density was measured, total RNA of 3×10^6 viable cells was extracted using RNeasy Plus Mini Kit (Qiagen, cat. 74134) and conditioned medium was collected from each well. To control the silencing effect on the target genes, mRNA expression was determined by real-time RT-PCR.

C1s (Gm5077) mRNA = experiment: as above; format: cell-based, Chinese hamster; conditions: for residual protease gene-expression: siRNA negative control cells = 100%
Procedure: as §1, §2

[1] = system: Matriptase (MT-SP1, St14) mRNA; experiment: as above; format: cell-based, Chinese hamster; conditions: for residual protease gene-expression: siRNA negative control cells = 100%, three days after transfection
Procedure: as §1, §2

Plat mRNA = experiment: as above; format: cell-based, Chinese hamster; conditions: for residual protease gene-expression: siRNA negative control cells = 100%
Procedure: as §1, §2

Prss35 mRNA = experiment: as above; format: cell-based, Chinese hamster; conditions: for residual protease gene-expression: siRNA negative control cells = 100%
Procedure: as §1, §2

matriptase = target: T1, matriptase (Homo sapiens, UniProt Q9Y5Y6); conditions: Forbs et al. 2005; Desilets et al. 2006; cited from earlier work
T1 sequence (Q9Y5Y6 1-855): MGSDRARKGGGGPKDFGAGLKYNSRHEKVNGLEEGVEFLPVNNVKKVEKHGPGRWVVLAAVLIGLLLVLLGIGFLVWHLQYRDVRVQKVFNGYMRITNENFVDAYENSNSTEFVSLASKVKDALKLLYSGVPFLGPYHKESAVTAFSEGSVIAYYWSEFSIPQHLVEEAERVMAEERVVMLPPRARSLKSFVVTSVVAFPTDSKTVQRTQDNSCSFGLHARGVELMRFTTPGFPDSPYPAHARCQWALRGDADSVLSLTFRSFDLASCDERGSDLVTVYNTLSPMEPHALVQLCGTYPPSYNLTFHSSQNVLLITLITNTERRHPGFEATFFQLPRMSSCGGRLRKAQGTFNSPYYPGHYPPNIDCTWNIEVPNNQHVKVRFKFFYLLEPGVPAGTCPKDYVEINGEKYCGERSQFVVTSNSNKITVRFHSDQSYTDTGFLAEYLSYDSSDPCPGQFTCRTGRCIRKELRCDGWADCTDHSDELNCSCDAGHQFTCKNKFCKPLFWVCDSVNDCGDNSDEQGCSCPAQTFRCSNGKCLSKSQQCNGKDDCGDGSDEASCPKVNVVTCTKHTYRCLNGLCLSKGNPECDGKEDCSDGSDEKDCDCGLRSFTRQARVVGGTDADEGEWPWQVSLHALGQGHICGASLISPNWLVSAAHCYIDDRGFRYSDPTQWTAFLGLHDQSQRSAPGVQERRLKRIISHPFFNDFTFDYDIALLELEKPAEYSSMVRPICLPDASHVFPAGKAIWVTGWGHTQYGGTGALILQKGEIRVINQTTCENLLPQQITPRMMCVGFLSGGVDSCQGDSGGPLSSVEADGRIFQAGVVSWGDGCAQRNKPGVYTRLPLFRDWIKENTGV

For “C1r (C1ra): siRNA against C1ra mRNA, sense SEQ ID NO: 8, antisense SEQ ID NO: 9 (sense GAUGUCUUUUCUCAAAAUATT; antisense UAUUUUGAGAAAAGACAUCAT; chemistry not given here)”, the residual protease gene-expression (C1r (C1ra) mRNA; 125 pmol siRNA) was 6.3%, the residual protease gene-expression (C1r (C1ra) mRNA; 150 pmol siRNA) was 6.7% and the mRNA reduction (C1r (C1ra) mRNA; two siRNA concentrations) was 93.7% and 93.3%.
With “C1s (Gm5077): siRNA against Gm5077 (C1s) mRNA, sense SEQ ID NO: 10, antisense SEQ ID NO: 11 (sense CGCUGAACGUGUGAUUAUUTT; antisense AAUAAUCACACGUUCAGCGGT; chemistry not given here)” the residual protease gene-expression (C1s (Gm5077) mRNA; 100 pmol siRNA) was 11.9%, the residual protease gene-expression (C1s (Gm5077) mRNA; 125 pmol siRNA) was 14.4% and the mRNA reduction (C1s (Gm5077) mRNA; two siRNA concentrations, listed as Cis (Gm5077)) was 88.1% and 85.6%.
For “MT-SP1: siRNA against matriptase mRNA, sense SEQ ID NO: 6, antisense SEQ ID NO: 7 (sense GCAAGAUCACUGUUCGCUUTT; antisense AAGCGAACAGUGAUCUUGCTG; chemistry not given here)”, the residual protease gene-expression ([1]; 125 pmol siRNA) was 18.6%, the residual protease gene-expression ([1]; 150 pmol siRNA) was 18.2% and the “MT-SP1 suppressed in comparison to the negative control” value ([1]; two set-ups (125 and 150 pmol siRNA)) was 81.4% and 81.8%.
With “Plat: siRNA against Plat mRNA, sense SEQ ID NO: 12, antisense SEQ ID NO: 13 (sense GAAACAAGAUGAAGACAGATT; antisense UCUGUCUUCAUCUUGUUUCCC; chemistry not given here)” the residual protease gene-expression (Plat mRNA; 125 pmol siRNA) was 8.3%, the residual protease gene-expression (Plat mRNA; 150 pmol siRNA) was 5.1% and the mRNA reduction (Plat mRNA; two siRNA concentrations) was 91.7% and 94.9%.
With “Prss35: siRNA against Prss35 mRNA, sense SEQ ID NO: 14, antisense SEQ ID NO: 15 (sense GGCCUUAGACUACGACUAUTT; antisense AUAGUCGUAGUCUAAGGCCGG; chemistry not given here)” the residual protease gene-expression (Prss35 mRNA; 100 pmol siRNA) was 18.4%, the residual protease gene-expression (Prss35 mRNA; 125 pmol siRNA) was 14.8% and the mRNA reduction (Prss35 mRNA; two siRNA concentrations) was 81.6% and 85.2%.
For eglin c, the pKi (matriptase) is given as 7.74.
